Structures are written as SMILES. Activity calls are given as the source filed them. Where a SMILES comes first, the peptide text is derived from it. [ ]: non-standard residue; d: D form. dHyp = O=C(O)[C@H]1C[C@H](O)CN1

The test system of data set [1] is Mus musculus. The data set is described as follows: Antiarrhythmic effect in calcium chloride-induced CD1 mouse arrhythmia model assessed as gap-junction intracellular communication re-establishment-mediated prolongation of time to onset of cardiac conduction block at 10 pmol/kg, iv relative to control. In kind it is functional, Heart.
The next data set concerns Cardiac atrium. The data set is described as follows: Prevention of metabolic stress-induced conduction velocity slowing in Sprague-Dawley rat atrium at 10 uM by microelectrode based assay. In kind it is functional, tissue-based.
Data set [2] deals with Mus musculus. The data set is described as follows: Antiarrhythmic effect in calcium chloride-induced CD1 mouse arrhythmia model assessed as gap-junction intracellular communication re-establishment-mediated prolongation of time to onset of cardiac conduction block at 1 nmol/kg, iv relative to control. In kind it is functional, Heart.
Data set [3] deals with Mus musculus. The data set is described as follows: Antiarrhythmic effect in calcium chloride-induced CD1 mouse arrhythmia model assessed as gap-junction intracellular communication re-establishment-mediated prolongation of time to onset of cardiac conduction block at 10 mg/kg, po relative to control. Format: functional, organism-based. Also on record: dose 10 mg/kg. Particulars: Heart.

The subject of data set [4] is Mus musculus. The data set is described as follows: Antiarrhythmic effect in calcium chloride-induced CD1 mouse arrhythmia model assessed as gap-junction intracellular communication re-establishment-mediated prolongation of time to onset of cardiac conduction block at 1 pmol/kg, iv relative to control. In kind it is functional, Heart.
Data set [5] concerns C6. The data set is described as follows: Reduction of simulated ischemia-induced calcein uptake in rat C6 cells. Format: functional, cell-based.
Data set [6] deals with Mus musculus. The data set is described as follows: Antiarrhythmic effect in calcium chloride-induced CD1 mouse arrhythmia model assessed as gap-junction intracellular communication re-establishment-mediated prolongation of time to onset of cardiac conduction block at 100 pmol/kg, iv relative to control. In kind it is functional, Heart.
A short description of data set [7]: Half life in rat at 0.5 mg/kg, iv. Particulars: in vivo. In kind it is ADME, organism-based. More on the design: dose 0.5 mg/kg, route intravenous.
A short description of data set [8]: Cmax in rat at 5 mg/kg, po. Also on record: dose 5 mg/kg, route oral. In kind it is ADME, organism-based. Particulars: in vivo.
Data set [9] in a line: Half life in rat at 5 mg/kg, po. In kind it is ADME, organism-based. Also on record: dose 5 mg/kg, route oral. The following applies: in vivo.
Data set [10] can be described thus: (§1) Oral bioavailability in rat at 5 mg/kg. Format: ADME, organism-based. The following applies: in vivo.
Data set [11] can be described thus: (§2) AUC in rat at 5 mg/kg, po. Format: ADME, organism-based, Plasma. Also on record: dose 5 mg/kg, route oral. The following applies: plasma.
A short description of data set [12]: Volume of distribution at steady state in rat at 0.5 mg/kg, iv. Format: ADME, organism-based. Also on record: dose 0.5 mg/kg, route intravenous. The following applies: in vivo, read-out: Vdss.
Data set [13] is described as follows: Tmax in rat at 5 mg/kg, po. More on the design: dose 5 mg/kg, route oral. Format: ADME, organism-based. Particulars: in vivo.
The nature of data set [14]: Clearance in rat at 0.5 mg/kg, iv. The following applies: in vivo. Also on record: dose 0.5 mg/kg, route intravenous. Format: ADME, organism-based.
The target in a further data set is Cytochrome P450 3A4 (Homo sapiens, UniProt P08684). The data set is described as follows: Inhibition of CYP3A4 at 3 uM. In kind it is ADME.
Cytochrome P450 3A4, sequence (P08684 whole entry): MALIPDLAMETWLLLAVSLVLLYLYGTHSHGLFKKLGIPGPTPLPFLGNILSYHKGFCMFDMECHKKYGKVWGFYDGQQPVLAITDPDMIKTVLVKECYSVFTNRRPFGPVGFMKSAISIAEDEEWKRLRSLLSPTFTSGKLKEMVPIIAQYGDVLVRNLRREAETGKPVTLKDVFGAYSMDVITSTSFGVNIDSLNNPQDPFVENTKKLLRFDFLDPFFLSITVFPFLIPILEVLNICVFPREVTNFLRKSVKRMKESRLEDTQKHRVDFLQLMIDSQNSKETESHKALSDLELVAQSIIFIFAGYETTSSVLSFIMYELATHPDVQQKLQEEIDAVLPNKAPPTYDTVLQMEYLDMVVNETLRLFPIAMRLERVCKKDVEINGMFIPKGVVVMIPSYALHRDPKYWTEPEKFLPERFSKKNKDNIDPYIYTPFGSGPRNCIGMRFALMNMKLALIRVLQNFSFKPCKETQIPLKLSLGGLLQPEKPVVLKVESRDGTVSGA
The test system of data set [15] is C6. The data set is described as follows: Reduction of simulated ischemia-induced cell swelling in rat C6 cells. In kind it is functional, cell-based.
A further data set concerns the target Cytochrome P450 2D6 (Homo sapiens, UniProt P10635). The data set is described as follows: Inhibition of CYP2D6 at 3 uM. In kind it is ADME.
The target in a further data set is Cytochrome P450 2C9 (Homo sapiens, UniProt P11712). The data set is described as follows: Inhibition of CYP2C9 at 3 uM. Format: ADME.
Cytochrome P450 2C9, sequence (P11712 whole entry): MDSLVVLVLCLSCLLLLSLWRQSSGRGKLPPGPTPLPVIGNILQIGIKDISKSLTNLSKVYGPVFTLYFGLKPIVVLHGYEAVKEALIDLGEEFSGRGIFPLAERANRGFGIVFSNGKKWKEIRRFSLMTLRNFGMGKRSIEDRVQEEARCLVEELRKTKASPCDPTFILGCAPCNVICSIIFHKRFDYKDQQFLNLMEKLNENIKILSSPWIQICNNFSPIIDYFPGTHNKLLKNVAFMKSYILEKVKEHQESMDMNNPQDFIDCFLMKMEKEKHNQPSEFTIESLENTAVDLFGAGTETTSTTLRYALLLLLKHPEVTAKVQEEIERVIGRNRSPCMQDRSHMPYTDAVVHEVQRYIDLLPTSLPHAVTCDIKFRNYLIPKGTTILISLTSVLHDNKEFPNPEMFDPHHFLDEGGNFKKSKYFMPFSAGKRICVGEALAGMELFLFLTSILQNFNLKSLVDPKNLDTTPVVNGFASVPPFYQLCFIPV
Data set [16] relates to Mus musculus. The data set is described as follows: Antiarrhythmic effect in calcium chloride-induced po dosed CD1 mouse arrhythmia model assessed as gap-junction intracellular communication re-establishment-mediated prolongation of time to onset of cardiac conduction block relative to control. In kind it is functional, Heart.
A short description of data set [17]: Oral bioavailability in dog. In kind it is ADME, organism-based, Canis lupus familiaris. Particulars: in vivo.
Data set [18] addresses Voltage-gated inwardly rectifying potassium channel KCNH2 (Homo sapiens, UniProt Q12809). The data set is described as follows: Inhibition of human ERG.
Data set [19] deals with Rattus norvegicus. Described as §1. Format: ADME, organism-based. Particulars: in vivo.
For data set [20], the system named is Rattus norvegicus. Described as §2. In kind it is ADME, organism-based, Plasma. More on the design: dose 5 mg/kg, route oral. The following applies: in vivo.

Voltage-gated inwardly rectifying potassium channel KCNH2, sequence (Q12809 whole entry): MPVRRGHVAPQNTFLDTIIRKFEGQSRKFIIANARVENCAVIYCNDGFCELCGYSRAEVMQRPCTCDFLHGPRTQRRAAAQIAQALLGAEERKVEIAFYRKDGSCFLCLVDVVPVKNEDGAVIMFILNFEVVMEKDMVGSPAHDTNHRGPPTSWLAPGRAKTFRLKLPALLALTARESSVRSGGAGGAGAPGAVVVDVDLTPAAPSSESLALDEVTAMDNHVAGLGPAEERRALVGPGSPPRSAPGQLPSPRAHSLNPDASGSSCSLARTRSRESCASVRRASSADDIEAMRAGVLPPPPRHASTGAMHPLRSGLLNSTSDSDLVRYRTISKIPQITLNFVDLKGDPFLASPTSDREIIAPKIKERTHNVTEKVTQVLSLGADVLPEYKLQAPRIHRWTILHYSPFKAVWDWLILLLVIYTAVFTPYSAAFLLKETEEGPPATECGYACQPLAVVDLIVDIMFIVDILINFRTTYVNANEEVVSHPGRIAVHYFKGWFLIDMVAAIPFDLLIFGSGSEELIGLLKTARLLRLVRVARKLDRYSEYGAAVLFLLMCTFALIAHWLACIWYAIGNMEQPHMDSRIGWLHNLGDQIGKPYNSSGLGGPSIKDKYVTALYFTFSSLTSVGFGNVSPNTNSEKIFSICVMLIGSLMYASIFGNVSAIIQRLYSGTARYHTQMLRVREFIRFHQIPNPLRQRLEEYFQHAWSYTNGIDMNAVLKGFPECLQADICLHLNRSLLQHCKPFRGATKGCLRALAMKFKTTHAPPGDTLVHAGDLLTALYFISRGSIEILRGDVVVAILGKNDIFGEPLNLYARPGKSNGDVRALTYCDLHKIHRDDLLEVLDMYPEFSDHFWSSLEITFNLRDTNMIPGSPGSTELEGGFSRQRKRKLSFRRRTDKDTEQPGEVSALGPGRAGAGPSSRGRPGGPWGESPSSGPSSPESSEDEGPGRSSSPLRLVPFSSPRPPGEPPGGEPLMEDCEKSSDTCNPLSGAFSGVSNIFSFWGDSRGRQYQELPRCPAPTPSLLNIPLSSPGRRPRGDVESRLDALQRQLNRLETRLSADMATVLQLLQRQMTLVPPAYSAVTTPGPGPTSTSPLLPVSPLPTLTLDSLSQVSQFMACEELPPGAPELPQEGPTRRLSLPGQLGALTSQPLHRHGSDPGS
Cytochrome P450 2D6, sequence (P10635 whole entry): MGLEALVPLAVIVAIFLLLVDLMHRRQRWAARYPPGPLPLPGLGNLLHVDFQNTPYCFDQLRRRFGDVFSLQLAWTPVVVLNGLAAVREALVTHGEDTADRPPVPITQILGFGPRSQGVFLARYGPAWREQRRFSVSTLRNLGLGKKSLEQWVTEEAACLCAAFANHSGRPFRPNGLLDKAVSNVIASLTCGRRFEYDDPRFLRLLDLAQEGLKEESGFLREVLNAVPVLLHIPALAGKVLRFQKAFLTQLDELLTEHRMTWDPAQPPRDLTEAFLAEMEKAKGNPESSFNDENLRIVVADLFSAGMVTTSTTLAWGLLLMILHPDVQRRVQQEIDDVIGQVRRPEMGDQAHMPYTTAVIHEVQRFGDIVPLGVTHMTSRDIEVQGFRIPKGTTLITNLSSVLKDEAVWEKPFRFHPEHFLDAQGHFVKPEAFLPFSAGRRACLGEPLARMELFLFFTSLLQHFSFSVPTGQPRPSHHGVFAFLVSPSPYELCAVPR

`CC(=O)N[C@H](Cc1ccc(O)cc1)C(=O)N1CCC[C@@H]1C(=O)N1C[C@@H](O)C[C@@H]1C(=O)NCC(=O)N[C@H](C)C(=O)NCC(N)=O` [ROTIGAPTIDE] (Ac-[dY][dP][dHyp]G[dA]G-NH2): the Activity in the data set with Mus musculus [1] was 207%; in the data set with Mus musculus [2], 156%; with Mus musculus [4] it was 199%; in the data set on C6 [5], “Dose-dependent effect”; in the data set with Mus musculus [6], 152%. The outcome with Cardiac atrium and in the data set on Mus musculus [3] was Active.

For orientation: half-life means the time needed for the level to fall by half in the phase considered. Low readings indicate fast loss, high ones slow loss. A word on the Cmax: it is the maximum level reached in the sampled fluid or tissue. The term bioavailability denotes dose-corrected exposure relative to a reference, in per cent. In general, AUC refers to the area under the concentration-time curve, a measure of exposure. Read a high AUC as more exposure. What is called Tmax is the time from dosing to the highest level. In general, clearance refers to the volume of plasma or blood freed of the substance per unit of time. For the compound `COc1ccc(C(=O)NCC(=O)NCCCC[C@@H](N)CC(=O)O)cc1`, the Activity in the data set on Mus musculus [1] stood at 133%; in the data set with Mus musculus [2], 164%; with Mus musculus [4], 220%; in the data set with Mus musculus [6], 128%. Moreover, the outcome with Cardiac atrium was Active. Further, the half-life in [7] was 18 min; in data set [9] it was 90 min. This compound also returned a Cmax in data set [8] of 28 ng/mL. This compound showed a bioavailability in data set [10] of 2%. For the same compound, the AUC in [11] was 71 ng·h/mL. Further, the Vd in [12] is 0.4 L/kg. The Tmax in data set [13] is 45 min. This compound registered a clearance in data set [14] of 31 mL/min/kg.

As to `NCC(=O)NCCCC[C@@H](NC(=O)c1ccc([N+](=O)[O-])cc1)C(=O)O`, the Activity came out at 177% in the data set on Mus musculus [1], 158% in the data set on Mus musculus [2], 192% with Mus musculus [4] and 151% in the data set with Mus musculus [6].

On to `CC(=O)N[C@@H](C)C(=O)NCC(=O)N[C@@H](CC(N)=O)C(=O)N[C@@H](Cc1ccc(O)cc1)C(N)=O` (Ac-AGNY-NH2), for which the Activity came out at 157% in the data set on Mus musculus [1], 136% in the data set with Mus musculus [2], 228% in the data set on Mus musculus [4] and 205% with Mus musculus [6].

With `N[C@H](CCCCNC(=O)CNC(=O)c1ccc([N+](=O)[O-])cc1)CC(=O)O`, the Activity in the data set with Mus musculus [1] is listed as 206%; with Mus musculus [2], 201%; in the data set on Mus musculus [4] it was 124%; in the data set with Mus musculus [6], 197%.

For `Cl.NCC(=O)N1C[C@H](NC(=O)c2ccccc2)C[C@H]1C(=O)O`, the Activity result at Cytochrome P450 3A4 is listed as “Not Active”; in the data set on Mus musculus [1], 207%; at Cytochrome P450 2D6 it was “Not Active”; on Cytochrome P450 2C9, “Not Active”; in the data set on Mus musculus [2] it was 173%; with Mus musculus [16], 200%. The Activity entry was “Not Active” in [18], 162% in the data set with Mus musculus [4], “Dose-dependent effect” in the data set on C6 [5] and 148% in the data set with Mus musculus [6]. In addition, the result in the data set on C6 [15] and in the data set on Cardiac atrium was Active. The results for the half-life in data set [7] and in [9] were 48 min and 114 min, respectively. In [8], this compound showed a Cmax of 105 ng/mL. In addition, the bioavailability in data set [10] came out at 9%; in data set [17], 21%. In data set [11], this compound returned an AUC of 360 ng·h/mL. Besides, the Vd in data set [12] stood at 0.61 L/kg. Also, the Tmax in data set [13] came out at 30 min. Further, the clearance in data set [14] stood at 22 mL/min/kg.

With `NC(=O)C[C@H](NC(=O)CO)C(=O)N[C@@H](Cc1ccc(O)cc1)C(N)=O`, the Activity is 232% in the data set on Mus musculus [1], 187% in the data set on Mus musculus [2], 188% in the data set with Mus musculus [4] and 203% in the data set with Mus musculus [6]. For the same compound, the result in the data set on Cardiac atrium was Active. Moreover, the half-life is 18 min in [7] and 30 min in data set [9]. This compound also returned a Cmax in data set [8] of 31.5 ng/mL. The compound further came in with a F in the data set on Rattus norvegicus [19] of 0.7%. The compound also came in with an AUC in the data set on Rattus norvegicus [20] of 36 ng·h/mL. For the same compound, in data set [12], the Vd is 0.9 L/kg. Also, in [13], the Tmax was determined as 24 min.

Values taken from ChEMBL document CHEMBL1140950, “Discovery of (2S,4R)-1-(2-aminoacetyl)-4-benzamidopyrrolidine-2-carboxylic acid hydrochloride (GAP-134)13, an orally active small molecule gap-junction modifier for the treatment of atrial fibrillation” (J Med Chem, 2009).
